Calls of active or inactive are those of the source.
Experiments:
[1] = target: Cytochrome P450 3A4 (Homo sapiens, UniProt P08684); conditions: Potency;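 also: confirmatory qHTS run detecting inhibitors and substrates of CYP3A4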
[2] = A cytotoxicity screen of small molecule inhibitors of the PhoP region in Salmonella typhi identified in the primary screen. [Related pubchem assays: 1850, 1864, 1985 ]; type: functional
[3] = target: Eukaryotic translation initiation factor 4E (Mus musculus, UniProt P63073); assay: eIF4E–eIF4G protein interaction inhibitors, dose response, biochemical, TR-FRET (AID 855); type: functional;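 also: potency for disrupting eIF4E binding to eIF4GI seen as loss of FRET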
Sequence of Eukaryotic translation initiation factor 4E (P63073 whole entry): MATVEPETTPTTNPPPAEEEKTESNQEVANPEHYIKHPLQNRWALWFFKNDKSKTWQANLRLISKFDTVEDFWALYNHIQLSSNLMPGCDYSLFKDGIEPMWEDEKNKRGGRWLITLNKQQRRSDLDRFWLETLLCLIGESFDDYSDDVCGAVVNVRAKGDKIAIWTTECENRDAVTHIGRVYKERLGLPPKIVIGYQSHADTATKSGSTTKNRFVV

[4] = target: T1, Short transient receptor potential channel 4 (Mus musculus, UniProt Q9QUQ5); assay: mouse TRPC4 channel inhibitors, dose response, cell-based, HEK293 TRPC4/mu-opioid, Fluo-4 calcium (AID 434942); type: functional;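 also: potency of inhibitors blocking the TRPC4 calcium response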
T1 sequence (Q9QUQ5 whole entry): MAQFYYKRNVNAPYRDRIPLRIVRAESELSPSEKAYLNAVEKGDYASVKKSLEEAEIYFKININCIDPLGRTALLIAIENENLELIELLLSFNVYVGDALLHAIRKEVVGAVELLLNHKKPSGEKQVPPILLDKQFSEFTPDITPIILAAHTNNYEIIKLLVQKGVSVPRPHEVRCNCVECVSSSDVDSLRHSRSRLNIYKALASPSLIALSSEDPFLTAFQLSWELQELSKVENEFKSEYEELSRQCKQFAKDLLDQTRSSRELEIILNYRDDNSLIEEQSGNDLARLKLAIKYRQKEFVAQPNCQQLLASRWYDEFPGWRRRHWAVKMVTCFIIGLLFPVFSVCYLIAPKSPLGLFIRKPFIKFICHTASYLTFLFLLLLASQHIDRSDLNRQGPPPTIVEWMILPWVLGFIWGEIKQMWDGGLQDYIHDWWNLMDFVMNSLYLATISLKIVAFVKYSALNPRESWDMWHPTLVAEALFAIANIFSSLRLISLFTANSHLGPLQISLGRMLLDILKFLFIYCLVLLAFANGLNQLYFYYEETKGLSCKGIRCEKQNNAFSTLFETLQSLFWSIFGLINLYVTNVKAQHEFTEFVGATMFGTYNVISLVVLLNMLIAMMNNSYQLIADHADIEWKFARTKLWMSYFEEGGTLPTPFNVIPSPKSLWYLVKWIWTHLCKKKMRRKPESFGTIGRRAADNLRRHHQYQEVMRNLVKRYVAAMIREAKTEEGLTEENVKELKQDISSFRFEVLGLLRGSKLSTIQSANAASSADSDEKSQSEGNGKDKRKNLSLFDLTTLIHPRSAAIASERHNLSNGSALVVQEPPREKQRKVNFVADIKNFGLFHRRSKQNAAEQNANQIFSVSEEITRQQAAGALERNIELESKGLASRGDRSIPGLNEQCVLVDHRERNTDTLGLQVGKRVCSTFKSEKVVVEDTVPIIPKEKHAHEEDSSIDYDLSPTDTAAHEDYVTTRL

[5] = Vero E6 cell cytotoxicity, dose response, cytotoxicity control for non-replicating M. tuberculosis project, secondary assay (AID 492998); type: functional, VeroE6; conditions: Vero C1008
[6] = HepG2 cell cytotoxicity, dose response, cytotoxicity control for non-replicating M. tuberculosis project (AID 489018); type: functional; conditions: Mycobacterium tuberculosis
[7] = cells; type: functional
[8] = THP-1 cell cytotoxicity, dose response, cytotoxicity control for non-replicating M. tuberculosis project (AID 489025); type: functional
[9] = Luminescence Cell-Based Dose Retest to Confirm Inhibitors of Cancer Stem Cells. [Related pubchem assays (depositor defined):AID2717, AID2721]; type: functional; conditions: Homo sapiens
[10] = Shn3 3'UTR reporter inhibitors, dose response, cell-based, Clone20 osteoblasts, firefly luciferase, cherry-picked (AID 624132); type: functional;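 also: firefly luciferase luminescence from reporter carrying the Shn3 3'UTR in osteoblasts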
[11] = control 3'UTR Renilla luciferase suppression, dose response, counter-screen for Shn3 inhibitor project, cell-based, Clone20-Shn3RL, cherry-picked (AID 624133); type: functional
[12] = HepG2 cell cytotoxicity, dose response, cytotoxicity control for Shn3 inhibitor project, CellTiter-Glo, cherry-picked (AID 624134); type: functional, cell-based
[13] = cytotoxicity in HEK-293T cells, dose response, cytotoxicity control for BCR NF-kB inhibitor project, luminescence, B-cell screen hits (AID 489021); type: functional, cell-based;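 also: HEK-293T cells carrying an NF-kB luciferase reporter; cells exposed to compound for about 14 hours before viability readout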
[14] = test system: BJ; assay: cytotoxicity toward BJ-TERT fibroblasts, dose response, cell-based, RAS-independent, luminescence (AID 1933); type: functional; conditions: Homo sapiens
[15] = test system: BJ; assay: cells; type: functional, cell-based; conditions: Homo sapiens
[16] = cytotoxicity in HEK-293T cells, dose response, cytotoxicity control for TCR NF-kB inhibitor project, luminescence, T-cell screen hits (AID 489026); type: functional, cell-based;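 also: cells exposed to compound about 14 hours before the viability readout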
[17] = cytotoxicity toward DRD oncogenic fibroblasts, dose response, cell-based, non-viral oncogenic, luminescence (AID 1934); type: functional; conditions: Homo sapiens
[18] = test system: BJ; assay: cytotoxicity toward BJ-TERT-LT-ST fibroblasts, dose response, cell-based, RAS-independent, luminescence (AID 1935); type: functional; conditions: Homo sapiens;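 also: BJ fibroblasts immortalized with TERT plus LT and ST oncogenes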
[19] = target: Voltage-dependent T-type calcium channel subunit alpha-1H (Homo sapiens, UniProt O95180); type: functional;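 also: channel activity triggered by adding a high calcium stimulation buffer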
Sequence of Voltage-dependent T-type calcium channel subunit alpha-1H (O95180 whole entry): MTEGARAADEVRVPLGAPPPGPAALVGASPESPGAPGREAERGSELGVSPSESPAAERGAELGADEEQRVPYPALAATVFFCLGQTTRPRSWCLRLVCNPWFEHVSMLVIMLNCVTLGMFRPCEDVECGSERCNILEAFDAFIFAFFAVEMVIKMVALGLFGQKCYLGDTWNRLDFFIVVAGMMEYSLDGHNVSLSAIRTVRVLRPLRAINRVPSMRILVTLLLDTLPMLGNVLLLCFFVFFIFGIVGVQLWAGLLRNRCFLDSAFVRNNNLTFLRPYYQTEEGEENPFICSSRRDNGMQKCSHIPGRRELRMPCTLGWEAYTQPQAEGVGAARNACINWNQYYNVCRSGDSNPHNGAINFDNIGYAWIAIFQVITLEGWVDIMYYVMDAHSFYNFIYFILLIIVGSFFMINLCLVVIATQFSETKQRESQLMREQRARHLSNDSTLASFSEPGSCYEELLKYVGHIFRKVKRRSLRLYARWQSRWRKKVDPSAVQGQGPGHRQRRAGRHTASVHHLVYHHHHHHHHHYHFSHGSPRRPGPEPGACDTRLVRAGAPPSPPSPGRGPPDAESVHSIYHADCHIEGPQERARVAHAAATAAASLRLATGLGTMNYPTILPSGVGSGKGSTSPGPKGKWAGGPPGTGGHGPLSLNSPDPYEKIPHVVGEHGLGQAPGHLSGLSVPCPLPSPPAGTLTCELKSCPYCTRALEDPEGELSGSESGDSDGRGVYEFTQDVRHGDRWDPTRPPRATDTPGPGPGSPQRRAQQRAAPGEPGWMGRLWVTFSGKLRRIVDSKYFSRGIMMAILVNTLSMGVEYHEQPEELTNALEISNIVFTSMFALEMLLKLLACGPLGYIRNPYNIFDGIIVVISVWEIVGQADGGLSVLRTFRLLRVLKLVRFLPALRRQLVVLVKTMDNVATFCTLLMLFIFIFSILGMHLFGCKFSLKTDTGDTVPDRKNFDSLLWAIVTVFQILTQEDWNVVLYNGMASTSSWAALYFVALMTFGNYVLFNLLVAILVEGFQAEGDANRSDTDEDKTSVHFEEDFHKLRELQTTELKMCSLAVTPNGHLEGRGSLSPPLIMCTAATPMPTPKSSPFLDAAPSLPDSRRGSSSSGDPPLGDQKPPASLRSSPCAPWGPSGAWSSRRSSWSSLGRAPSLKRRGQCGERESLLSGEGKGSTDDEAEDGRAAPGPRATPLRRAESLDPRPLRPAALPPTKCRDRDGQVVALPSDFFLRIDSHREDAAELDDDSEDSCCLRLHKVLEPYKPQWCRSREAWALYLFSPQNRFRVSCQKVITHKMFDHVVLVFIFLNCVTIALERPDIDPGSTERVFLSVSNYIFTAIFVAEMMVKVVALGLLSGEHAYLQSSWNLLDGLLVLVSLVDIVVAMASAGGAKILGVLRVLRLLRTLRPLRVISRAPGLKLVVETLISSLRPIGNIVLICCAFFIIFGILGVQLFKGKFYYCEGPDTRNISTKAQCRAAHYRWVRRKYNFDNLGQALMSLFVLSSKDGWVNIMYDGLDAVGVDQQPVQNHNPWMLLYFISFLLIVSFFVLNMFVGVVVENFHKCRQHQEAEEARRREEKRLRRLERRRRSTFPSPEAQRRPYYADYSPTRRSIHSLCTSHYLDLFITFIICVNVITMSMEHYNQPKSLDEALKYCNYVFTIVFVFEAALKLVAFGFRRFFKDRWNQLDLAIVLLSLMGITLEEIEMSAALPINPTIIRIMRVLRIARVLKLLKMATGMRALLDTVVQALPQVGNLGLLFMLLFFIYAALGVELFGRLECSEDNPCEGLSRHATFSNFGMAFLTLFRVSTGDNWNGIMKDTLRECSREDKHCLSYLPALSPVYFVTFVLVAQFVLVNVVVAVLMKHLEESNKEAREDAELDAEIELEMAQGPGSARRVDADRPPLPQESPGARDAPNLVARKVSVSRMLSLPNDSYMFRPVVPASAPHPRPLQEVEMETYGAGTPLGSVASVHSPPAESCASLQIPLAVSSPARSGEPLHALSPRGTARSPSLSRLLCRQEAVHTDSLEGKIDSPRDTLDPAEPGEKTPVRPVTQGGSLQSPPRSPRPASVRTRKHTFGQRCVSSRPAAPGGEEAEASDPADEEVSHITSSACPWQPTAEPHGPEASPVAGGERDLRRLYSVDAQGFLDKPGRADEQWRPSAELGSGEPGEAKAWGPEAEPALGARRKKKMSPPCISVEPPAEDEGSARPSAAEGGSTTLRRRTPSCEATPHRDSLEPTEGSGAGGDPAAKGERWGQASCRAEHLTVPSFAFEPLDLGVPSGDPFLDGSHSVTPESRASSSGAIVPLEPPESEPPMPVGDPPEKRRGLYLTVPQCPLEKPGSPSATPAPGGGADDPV

[20] = target: T2, Tyrosine-protein phosphatase non-receptor type 7 (Homo sapiens, UniProt P35236); type: functional
T2 sequence (P35236 whole entry): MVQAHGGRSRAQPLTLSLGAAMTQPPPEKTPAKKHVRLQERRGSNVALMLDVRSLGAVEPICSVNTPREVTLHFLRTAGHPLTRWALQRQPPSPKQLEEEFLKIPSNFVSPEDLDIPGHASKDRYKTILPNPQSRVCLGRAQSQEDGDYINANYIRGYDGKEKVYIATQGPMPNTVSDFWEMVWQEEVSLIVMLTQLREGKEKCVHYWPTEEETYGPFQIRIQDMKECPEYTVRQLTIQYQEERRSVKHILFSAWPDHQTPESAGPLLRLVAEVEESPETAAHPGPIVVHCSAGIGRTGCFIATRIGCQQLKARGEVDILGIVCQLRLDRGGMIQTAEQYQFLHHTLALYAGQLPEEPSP

[21] = target: T3, Tyrosine-protein phosphatase non-receptor type 22 (Homo sapiens, UniProt Q9Y2R2); type: functional
T3 sequence (Q9Y2R2 whole entry): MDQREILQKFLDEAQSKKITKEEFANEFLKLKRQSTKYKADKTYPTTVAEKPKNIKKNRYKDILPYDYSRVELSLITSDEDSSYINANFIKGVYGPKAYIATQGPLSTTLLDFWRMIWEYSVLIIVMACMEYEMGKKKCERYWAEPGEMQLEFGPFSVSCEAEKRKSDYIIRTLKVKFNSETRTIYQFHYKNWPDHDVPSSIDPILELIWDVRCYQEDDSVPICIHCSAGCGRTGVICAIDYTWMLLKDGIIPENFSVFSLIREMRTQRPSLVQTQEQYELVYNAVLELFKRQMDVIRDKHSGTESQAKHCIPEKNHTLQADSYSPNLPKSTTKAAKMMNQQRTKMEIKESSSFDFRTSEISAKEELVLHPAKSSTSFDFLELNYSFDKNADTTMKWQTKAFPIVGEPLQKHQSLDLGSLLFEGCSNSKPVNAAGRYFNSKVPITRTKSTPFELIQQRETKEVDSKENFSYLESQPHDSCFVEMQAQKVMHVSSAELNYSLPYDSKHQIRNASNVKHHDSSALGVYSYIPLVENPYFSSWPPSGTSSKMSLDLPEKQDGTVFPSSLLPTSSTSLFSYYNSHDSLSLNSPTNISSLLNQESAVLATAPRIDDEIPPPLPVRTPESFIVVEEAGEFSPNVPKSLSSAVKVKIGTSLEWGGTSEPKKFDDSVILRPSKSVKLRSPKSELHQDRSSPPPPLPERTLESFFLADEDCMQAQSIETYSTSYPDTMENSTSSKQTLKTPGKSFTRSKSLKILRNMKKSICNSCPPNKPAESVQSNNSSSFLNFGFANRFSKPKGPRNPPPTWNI

[22] = target: T3, Tyrosine-protein phosphatase non-receptor type 22; type: functional; remark: listed apart in the source
[23] = test system: INS1; assay: beta cell apoptosis inhibitors, cytokine rescue, dose response, luminescence, retest (AID 449756); type: functional, cell-based; conditions: Rattus norvegicus;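 also: cell death triggered by IL-1 beta plus TNF-alpha plus IFN-gamma mixture; protective hits raise ATP signal compared with cytokine alone wells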
[24] = target: Tumor necrosis factor (Homo sapiens, UniProt P01375); assay: TNFa-triggered NF-kB activation inhibitors, SAR follow-up, cell-based, revised (AID 2337); type: functional
Sequence of Tumor necrosis factor (P01375 whole entry): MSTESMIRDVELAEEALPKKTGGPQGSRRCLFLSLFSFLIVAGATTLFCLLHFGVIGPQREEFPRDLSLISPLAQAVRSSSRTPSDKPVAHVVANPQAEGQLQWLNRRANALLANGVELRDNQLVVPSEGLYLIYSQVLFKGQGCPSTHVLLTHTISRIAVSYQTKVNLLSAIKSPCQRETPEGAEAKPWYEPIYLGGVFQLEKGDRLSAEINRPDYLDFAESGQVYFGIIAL

[25] = test system: HEK293; assay: cells; conditions: Homo sapiens;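 also: cells exposed to compound for 14 hours overnight before viability readout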

Sequence of Cytochrome P450 3A4 (P08684 whole entry): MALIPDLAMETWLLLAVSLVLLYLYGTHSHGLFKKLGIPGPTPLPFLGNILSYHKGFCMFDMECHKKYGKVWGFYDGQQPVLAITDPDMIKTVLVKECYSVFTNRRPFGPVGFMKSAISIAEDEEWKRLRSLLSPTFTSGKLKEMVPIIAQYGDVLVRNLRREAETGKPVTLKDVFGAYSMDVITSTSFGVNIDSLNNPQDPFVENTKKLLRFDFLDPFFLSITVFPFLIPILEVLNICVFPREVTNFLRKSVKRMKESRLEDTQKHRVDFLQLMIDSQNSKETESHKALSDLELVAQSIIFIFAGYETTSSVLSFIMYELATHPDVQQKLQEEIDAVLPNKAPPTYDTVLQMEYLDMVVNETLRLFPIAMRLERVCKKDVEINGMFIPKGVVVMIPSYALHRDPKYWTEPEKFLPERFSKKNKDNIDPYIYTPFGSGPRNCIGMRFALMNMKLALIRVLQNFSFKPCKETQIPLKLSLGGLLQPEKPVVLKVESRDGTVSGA

Q: Which AC50 [1] does the source give for `Cn1c(N)c(C(=O)COC(=O)c2cc(-c3ccccc3)nc3ccccc23)c(=O)n(Cc2ccccc2)c1=O` here?
A: 12.6 µM (inconclusive)

Q: With `COc1ccc(S(=O)(=O)N[C@H](C(=O)N2CC[C@@]3(O)CCCC[C@H]3C2)c2ccccc2)cc1` as the molecule, how does the EC50 [2] read?
A: > 50 µM (active)

Q: For `COc1ccc2ccccc2c1C1CC(=O)N2CN(C)CSC2=C1C#N` (centres undefined), which IC50 [3] is on record?
A: > 64 µM (inactive)

Q: With `CCOc1ccc2[nH]c3c(N4CCN(c5ccccn5)CC4)ncnc3c2c1` as the molecule, how does the EC50 [4] read?
A: 1.19 µM (active)

Q: For `COc1ccc(/C=C2\Sc3ccc(C(=O)NCCN4CCCCCC4)cc3N(C)C2=O)cc1`, which CC50 [5] is on record?
A: > 20 µM (active)

Q: What about the CC50 [6] of the same molecule?
A: 14.3 µM (active)

Q: What about the IC50 [7] of the same molecule?
A: 19 µM (active)

Q: What about the CC50 [8] of the same molecule?
A: 17.9 µM (active)

Q: For `CC(NCc1ccc(OCc2ccc(Cl)cc2)cc1)C(O)c1ccccc1` (centres undefined), which AC50 [9] is on record?
A: 3.57 µM (active)

Q: And the AC50 [10]?
A: 10.9 µM (active)

Q: And the CC50 [5]?
A: 14.6 µM (active)

Q: And the CC50 [6]?
A: 15.5 µM (active)

Q: And the AC50 [11]?
A: 21.2 µM (active)

Q: What about the IC50 [7] of the same molecule?
A: 13.3 µM (active)

Q: What about the CC50 [8] of the same molecule?
A: 9.8 µM (active)

Q: What about the AC50 [12] of the same molecule?
A: 14.6 µM (active)

Q: For `COc1cccc(Cn2nnc(C(=O)Nc3cc(Cl)ccc3OC)c2N)c1`, which AC50 [9] is on record?
A: 0.498 µM (active)

Q: What about the IC50 [13] of the same molecule?
A: > 80 µM (inactive)

Q: For `COc1ccccc1N1CCN(C(=O)C2c3ccccc3Oc3ccccc32)CC1`, which EC50 [14] is on record?
A: 2.13 µM (active)

Q: And the EC50 [15]?
A: 40.2 µM (inconclusive)

Q: What about the IC50 [16] of the same molecule?
A: > 80 µM (inactive)

Q: What about the EC50 [17] of the same molecule?
A: 2.06 µM (inconclusive)

Q: And the EC50 [18]?
A: 1.65 µM (inconclusive)

Q: What about the EC50 [19] of the same molecule?
A: 3.44 µM (active)

Q: Which IC50 [20] does the source give for `CCn1cc(Br)c(C(=O)NC(=S)Nc2ccc(C(=O)OC)cc2)n1` here?
A: > 79.4 µM (inactive)

Q: And the IC50 [21]?
A: > 79.4 µM (inactive)

Q: And the IC50 [22]?
A: > 79.4 µM (inactive)

Q: For `CCN(Cc1ccccc1)C(c1ccc(C(F)(F)F)cc1)c1nnnn1C(C)(C)C` (centres undefined), which AC50 [23] is on record?
A: 6.45 µM (active)

Q: What about the EC50 [19] of the same molecule?
A: 11.8 µM (active)

Q: For `CC(=O)N1c2ccc(S(=O)(=O)N3CCN(c4ccc([N+](=O)[O-])cc4)CC3)cc2CC1C` (centres undefined), which IC50 [24] is on record?
A: 3.27 µM (active)

Q: And the IC50 [25]?
A: 14.3 µM (active)

Q: Which AC50 [1] does the source give for `COC(=O)CC1[C@@]2(C)C[C@@]34OC5(C)OC6(CC[C@@]7(C)C(c8ccoc8)OC(=O)C(C(C)=O)C7[C@]6(O5)C(O)[C@@]3(O)C2O)[C@]14C` (some centres undefined) here?
A: 39.8 µM (inconclusive)

Q: For `CCCCCCN(C(=O)CCCCCN1C(=O)NC(c2ccc(-c3ccccc3)cc2)C(C(=O)OCc2ccccc2)=C1C)C(C(=O)NCCCC)c1ccccn1` (centres undefined), which AC50 [1] is on record?
A: 1 µM (inconclusive)

Q: With `O=C(N/N=C/c1ccc(Cl)cc1Cl)c1ccc(-n2cnnn2)cc1` as the molecule, how does the IC50 [13] read?
A: > 80 µM (inactive)
